Data published in patent US20250236622A1, “BICYCLIC COMPOUNDS AS INHIBITORS OF WRN” (Incyte Corporation, priority 2023, published 2025).

Assays:
WRN [1] = molecular target: T1, WRN (Homo sapiens, UniProt Q14191); experiment: WRN ATPase Activity Assay (ADP-Glo); format: biochemical; conditions: 1-hr pre-incubation with enzyme; 100 μM ATP, 25 nM forked dsDNA, 1 nM WRN; geometric mean of at least 2 replicates
T1 construct: A His-tagged construct of WRN (AA S2-S1235) was produced and used for the ATPase assay; made in house; host or cells: Sf9 insect cells (baculovirus, pFastBac1)
Protocol: Compounds of the Examples were tested for WRN ATPase activity. WRN ATPase activity catalyzes ATP hydrolysis to produce ADP and phosphate. DNA encoding the target protein, 6×HIS-TEV-WRN-517-945, was produced, cloned and transfected as detailed in Example D. The amount of ADP produced was measured using ADP-Glo™ Kinase Assay kit from Promega Corporation in a Greiner white regular volume 384 wells assay plate (Greiner #781075). Data was normalized to a standard curve generated using various ADP concentrations and the corresponding luminescent signal intensities at each concentration.
The assay conditions were optimized for enzyme concentration (WRN), substrate concentrations (ATP & dsDNA), and the linearity of the ATPase reaction, in the following assay buffer: 50 mM Tris-HCl, pH-7.5, 2 mM MgCl2, 50 mM NaCl, 1 mM EGTA, 0.01% P-20, 0.05% BSA, and 2 mM DTT prepared with nuclease free water.
A serial dilution (1:3 scheme) of the compounds were prepared in neat DMSO, with 100 nL of the compounds dispensed in the 384 wells assay plate. An 1-hr pre-incubation of the compounds with enzyme was included. A His-tagged construct of WRN (AA S2-S1235) was produced and used for the ATPase assay. Maximum inhibition control wells were set up with the addition of only assay buffer, and no inhibition control wells were set up with neat DMSO without test compounds. The reaction was initiated by addition of 5 μL substrate mix (200 μM ultrapure ATP, and 50 nM dsDNA prepared in assay buffer) and incubated at 25° C. for 35 min. A forked dsDNA oligomer substrate was prepared by annealing equal amounts of oligo GPat-1 ([BHQ2][…]) and oligo GPat-2 ([…][TAM]) and was used as dsDNA substrate for WRN ATPase assay. A typical ATPase reaction consists of 25 nM forked dsDNA, 100 μM ATP, and 1 nM WRN prepared in assay buffer. The WRN ATPase reaction was stopped by the addition of 5 μL of ADP-Glo Reagent from ADP-Glo™ Kinase Assay kit and incubated for 40 min to deplete the unreacted ATP. Afterwards, 5 μL of Kinase Detection Reagent from the ADP-Glo™ Kinase Assay kit was added and incubated for 1 hr for the development of luminescence signal.
Luminesce signals were measured on BMG PHERAstar FSX using luminescence protocol. Data analysis was carried out using Genedata software following % of control normalization. Fitting parameters include dose response IC50, Hill slope (n), maximum inhibition (S∞), and minimum inhibition (S0). The reported IC50 values for compounds in this invention are the geometric means of at least 2 independent replicates.

WRN [2] = molecular target: T1, WRN; experiment: WRN Helicase Activity Assay (fluorescence DNA unwinding); format: biochemical; conditions: 1-hr pre-incubation with enzyme; 100 μM ATP, 25 nM forked dsDNA, 1 nM WRN; geometric mean of at least 2 replicates
Protocol: Compounds of the examples were tested for WRN helicase activity. DNA encoding the target protein, 6×HIS-TEV-WRN-517-945, was produced, cloned and transfected as detailed in Example D. To determine the inhibitory properties of the compounds, a 384 wells plate-based Helicase assay was set up to measure the extent of DNA unwinding (Helicase) activity of WRN. The WRN Helicase assay was designed to measure increase in fluorescence signal using a fluorescence based, donor-quencher paired forked dsDNA oligomer substrate (custom synthesis from Sigma-Aldrich) prepared by annealing equal amounts of oligo GPat-1 ([BHQ2][…]) and oligo GPat-2 ([…][TAM]). Continuous measurement of fluorescent signal was used to optimize the buffer conditions, concentration of enzyme (WRN), concentration of substrates (ATP & dsDNA), and the linearity of the Helicase reaction. All solutions were prepared in the following assay buffer: 50 mM Tris-HCl, pH-7.5, 2 mM MgCl2, 50 mM NaCl, 1 mM EGTA, 0.01% P-20, 0.05% BSA, and 2 mM DTT prepared with nuclease free water.
A serial dilution (1:3 scheme) of the compounds was prepared in neat DMSO and 100 nL of the compounds was dispensed in the Greiner black low volume (Greiner #784076) 384 wells assay plate. An 1-hr pre-incubation of the compounds with enzyme was included. A His-tagged construct of WRN (AA S2-S1235) was produced and used for the ATPase assay. Maximum inhibition control wells were set up with the addition of only assay buffer, and no inhibition control wells were set up with neat DMSO without test compounds. The reaction was initiated by addition of 5 μL substrate mix (200 μM ultrapure ATP, and 50 nM dsDNA prepared in assay buffer) and incubated at 25° C. for 35 min. A typical Helicase reaction consists of 25 nM forked dsDNA, 100 μM ATP, and 1 nM WRN prepared in assay buffer. The WRN Helicase reaction was quenched by the addition of 5 μL ‘STOP’ solution containing 100 mM EDTA (final EDTA concentration 33.33 mM) prepared in assay buffer. The plates were read on BMG PHERAstar FSX using 540/590 module to measure an increase of fluorescence. Data analysis was carried out using the Genedata software following % of control normalization. Fitting parameters include dose response IC50, Hill slope (n), maximum inhibition (S∞), and minimum inhibition (S0). The reported IC50 values for compounds in this invention are the geometric means of at least 2 independent replicates.

T1 sequence (Q14191 2-1235): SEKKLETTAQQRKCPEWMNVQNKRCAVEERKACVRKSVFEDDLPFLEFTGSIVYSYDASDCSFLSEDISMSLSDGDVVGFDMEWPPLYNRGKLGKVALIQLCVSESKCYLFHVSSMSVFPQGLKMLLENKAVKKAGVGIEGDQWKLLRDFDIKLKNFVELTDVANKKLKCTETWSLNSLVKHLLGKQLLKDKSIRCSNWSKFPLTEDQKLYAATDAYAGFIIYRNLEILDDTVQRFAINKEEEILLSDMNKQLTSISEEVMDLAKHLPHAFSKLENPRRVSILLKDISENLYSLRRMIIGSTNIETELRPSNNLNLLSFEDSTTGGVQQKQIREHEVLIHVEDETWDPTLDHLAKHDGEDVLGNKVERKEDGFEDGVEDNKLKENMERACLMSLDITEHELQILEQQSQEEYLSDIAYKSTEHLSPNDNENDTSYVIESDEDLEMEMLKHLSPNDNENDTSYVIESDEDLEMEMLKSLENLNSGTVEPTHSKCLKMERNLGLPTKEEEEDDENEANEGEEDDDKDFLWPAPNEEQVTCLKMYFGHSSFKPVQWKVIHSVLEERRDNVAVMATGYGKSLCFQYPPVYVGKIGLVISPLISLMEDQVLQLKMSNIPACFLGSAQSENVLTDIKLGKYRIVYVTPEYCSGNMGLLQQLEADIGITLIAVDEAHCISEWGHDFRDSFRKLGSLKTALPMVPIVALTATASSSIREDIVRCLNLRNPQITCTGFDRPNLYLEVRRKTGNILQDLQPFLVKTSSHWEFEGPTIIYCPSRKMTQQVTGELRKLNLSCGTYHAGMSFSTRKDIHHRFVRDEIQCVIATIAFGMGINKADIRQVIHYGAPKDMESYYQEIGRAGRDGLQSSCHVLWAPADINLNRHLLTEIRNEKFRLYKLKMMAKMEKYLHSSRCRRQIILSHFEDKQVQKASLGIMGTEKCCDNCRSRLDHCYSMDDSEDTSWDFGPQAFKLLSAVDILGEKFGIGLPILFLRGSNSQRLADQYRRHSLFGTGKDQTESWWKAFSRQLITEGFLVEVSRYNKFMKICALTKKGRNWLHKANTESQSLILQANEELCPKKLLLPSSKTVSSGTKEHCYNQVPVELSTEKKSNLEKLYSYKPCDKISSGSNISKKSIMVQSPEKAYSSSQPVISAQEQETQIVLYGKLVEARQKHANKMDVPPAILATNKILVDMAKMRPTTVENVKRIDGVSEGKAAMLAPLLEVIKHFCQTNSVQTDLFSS

SMILES | IC50 (WRN [1]) [µM] | IC50 (WRN [2]) [µM]
C=CC(=O)Nc1ccccc1-c1c(CC)nc2n(CC(=O)Nc3ccc(C(F)(F)F)cc3)c(C3CCCCC3)nn2c1=O [Example 4, N-(2-(2-Cyclohexyl-5-ethyl-7-oxo-3-(2-oxo-2-((4-(trifluoromethyl)phenyl)amino)ethyl)-3,7-dihydro-[1,2,4]triazolo[1,5-a]pyrimidin-6-yl)phenyl)acrylamide] | 1 to 5 | 5 to 20
C=CC(=O)Nc1ccccc1-c1c(CC)nc2n(CC(=O)Nc3ccc(C(F)(F)F)cc3)c(-c3cccs3)nn2c1=O [Example 5, N-(2-(5-ethyl-7-oxo-3-(2-oxo-2-((4-(trifluoromethyl)phenyl)amino)ethyl)-2-(thiophen-2-yl)-3,7-dihydro-[1,2,4]triazolo[1,5-a]pyrimidin-6-yl)phenyl)acrylamide] | 0.1 to 0.5 | 0.1 to 0.5
C=CC(=O)Nc1ccccc1-c1c(CC)nc2n(CC(=O)Nc3ccc(C(F)(F)F)cc3)c(C3CCNCC3)nn2c1=O [Example 6, N-(2-(5-Ethyl-7-oxo-3-(2-oxo-2-((4-(trifluoromethyl)phenyl)amino)ethyl)-2-(piperidin-4-yl)-3,7-dihydro-[1,2,4]triazolo[1,5-a]pyrimidin-6-yl)phenyl)acrylamide] | 1 to 5 | 1 to 5

More lines, now with the values ahead:

IC50 (WRN [1]) [µM] | IC50 (WRN [2]) [µM] | SMILES
< 0.1 | < 0.1 | C=CC(=O)Nc1ccccc1-c1c(CC)nc2n(CC(=O)Nc3ccc(C(F)(F)F)cc3)c(C)nn2c1=O [Example 1, N-(2-(5-Ethyl-2-methyl-7-oxo-3-(2-oxo-2-((4-(trifluoromethyl)phenyl)amino)ethyl)-3,7-dihydro-[1,2,4]triazolo[1,5-a]pyrimidin-6-yl)phenyl)acrylamide]
< 0.1 | < 0.1 | C=CC(=O)Nc1ccccc1-c1c(CC)nc2n(CC(=O)Nc3ccc(C(F)(F)F)cc3)c(C3CC3)nn2c1=O [Example 2, N-(2-(2-Cyclopropyl-5-ethyl-7-oxo-3-(2-oxo-2-((4-(trifluoromethyl)phenyl)amino)ethyl)-3,7-dihydro-[1,2,4]triazolo[1,5-a]pyrimidin-6-yl)phenyl)acrylamide]
0.1 to 0.5 | 0.1 to 0.5 | C=CC(=O)Nc1ccccc1-c1c(CC)nc2n(CC(=O)Nc3ccc(C(F)(F)F)cc3)c(C3CCC3)nn2c1=O [Example 3, N-(2-(2-Cyclobutyl-5-ethyl-7-oxo-3-(2-oxo-2-((4-(trifluoromethyl)phenyl)amino)ethyl)-3,7-dihydro-[1,2,4]triazolo[1,5-a]pyrimidin-6-yl)phenyl)acrylamide]
